Reference: PMC10587126, “Molecular hybridization strategy for tuning bioactive peptide function” (Communications Biology, 2023)
Where two headings read alike, the source gives them in different places. No end group written: not given here.

Experiments:
[1] = Resistance to proteolytic degradation in fetal bovine serum; format: in vitro ADME; conditions: 25% fetal bovine serum in water, 37 °C
Method: Stability assays were performed following the protocol described by Torres et al.[67]. Briefly, a peptide solution was added to GIBCO fetal bovine serum diluted to 25% in water and kept at 37 °C. The degradation kinetics were monitored by liquid chromatography and the percentage of peptide remaining in each case was calculated by integrating the peptide peak area. These experiments were performed as three independent replicates, and aliquots were taken at 0, 0.5, 1, 2, 4, and 6 h.

[2] = Mouse body weight in the skin abscess infection model; format: in vivo
Method: The anti-infective activity of the peptides VmCT1, temporin A, VT, and TV against A. baumannii ATCC 19606 was evaluated as described by Torres et al.[7],[83] Bacteria were grown in tryptic soy broth medium to an optical density of 0.5 at 600 nm. Cells were washed twice with sterile phosphate-buffered saline (pH 7.4, 13,000 rpm for 1 min) and resuspended to a final concentration of 1 × 10^7 CFU/20 μL. To generate the skin infection, female CD-1 mice (6-weeks-old) were first anesthetized with isoflurane and their backs were shaved. Using a needle, a superficial linear abrasion was made on the shaved area of the mice to injure just the stratum corneum and the upper layer of the epidermis. An aliquot of 20 μL containing 1 × 10^7 CFU of A. baumannii was then inoculated over the wound area with a pipette tip. The next day, the infected area was treated with the peptides (i.e., VmCT1, temporin A, VT, and TV), which were administered onto the abscess at their MIC. The animals were euthanized, and the scarified skin area removed 2- and 4-days post-infection. The excised area was homogenized using a bead beater for 20 min (25 Hz) and serially diluted for CFU quantification. Eight mice were used per group (n = 8). All experiments were performed in accordance with protocol 806763 approved by the IACUC at the University of Pennsylvania.

[3] = Skin tissue histopathological analysis (H&E); format: in vivo, mouse; conditions: H&E staining, tissue collected 24 h after infection and treatment, three mice per condition
Method: The fur on the back of the mice was removed and the mice were infected and treated as described in the Skin abscess infection mouse model section. After 24 h, mice were euthanized for tissue collection. Samples were pre-fixed in individual cassettes, then transferred to a container filled with 70% ethanol (EtOH) for slicing and staining. Next, the samples were placed on glass slides for microscopy analysis. We collected the tissue from three mice per condition analyzed.

[4] = tested on: human erythrocytes; assay: Hemolytic activity; format: cell-based; conditions: 0.1–100 μmol L^−1 in PBS, room temperature, 1 h, absorbance 405 nm
Method: Assays against freshly collected human erythrocytes were performed following protocols described by Pedron et al.[54]. Briefly, peptide aliquots at concentrations ranging from 0.1 to 100 μmol L^−1 were incubated with a suspension of erythrocytes at room temperature for 1 h. The samples were then centrifuged, and the absorbance of the supernatant was measured at 405 nm. […] The surfactant SDS and PBS buffer were used as positive[81],[82] and negative controls, respectively. Sodium heparin was used as an anticoagulant when collecting human blood. Three biological repeats were performed. All experiments were performed in accordance with the protocol CEUA/IB #I-1345/15 approved by the Instituto Butantan.

[5] = tested on: human erythrocytes; conditions: at 100 µmol L^−1; cited from earlier work
Excerpt: These observations are consistent with our results for PV, which incorporated protonectin’s hydrophobic face (Fig. 2) displaying increased antimicrobial activity than VP (Fig. 3). Additi ...

[6] = LC peak area, time 0 = 100, 0.5 h, replicate 1
[7] = LC peak area, time 0 = 100, 0.5 h, replicate 2
[8] = LC peak area, time 0 = 100, 0.5 h, replicate 3
[9] = LC peak area, time 0 = 100, 1 h, replicate 1
[10] = LC peak area, time 0 = 100, 1 h, replicate 2
[11] = LC peak area, time 0 = 100, 1 h, replicate 3
[12] = LC peak area, time 0 = 100, 2 h, replicate 1
[13] = LC peak area, time 0 = 100, 2 h, replicate 2
[14] = LC peak area, time 0 = 100, 2 h, replicate 3
[15] = LC peak area, time 0 = 100, 4 h, replicate 1
[16] = LC peak area, time 0 = 100, 4 h, replicate 2
[17] = LC peak area, time 0 = 100, 6 h, replicate 1
[18] = LC peak area, time 0 = 100, 6 h, replicate 2
[19] = LC peak area, time 0 = 100, 6 h, replicate 3
[20] = day 0 = 100, Day 1, replicate 1
[21] = day 0 = 100, Day 1, replicate 2
[22] = day 0 = 100, Day 1, replicate 3
[23] = day 0 = 100, Day 2, replicate 1
[24] = day 0 = 100, Day 2, replicate 2
[25] = day 0 = 100, Day 2, replicate 3
[26] = day 0 = 100, Day 3, replicate 1
[27] = day 0 = 100, Day 3, replicate 2
[28] = day 0 = 100, Day 3, replicate 3
[29] = day 0 = 100, Day 4, replicate 1
[30] = day 0 = 100, Day 4, replicate 2
[31] = day 0 = 100, Day 4, replicate 3
[32] = LC peak area, time 0 = 100, 4 h, replicate 3

FLGAIGNVLKSIL-NH2 [TV]
Peptide remaining after 30 min ([1]; LC peak area vs time 0, 30 min, three replicates): totally degraded | Peptide remaining [1, 6]: 0 | Peptide remaining [1, 7]: 0 | Peptide remaining [1, 8]: 0 | Peptide remaining [1, 9]: 0 | Peptide remaining [1, 10]: 0 | Peptide remaining [1, 11]: 0 | Peptide remaining [1, 12]: 0 | Peptide remaining [1, 13]: 0 | Peptide remaining [1, 14]: 0 | Peptide remaining [1, 15]: 0 | Peptide remaining [1, 16]: 0 | Peptide remaining [1, 17]: 0 | Peptide remaining [1, 18]: 0 | Peptide remaining [1, 19]: 0 | remaining at 4 h ([1]; fetal bovine serum, 25% in water, LC peak area, time 0 = 100, 4 h, replicate 3, read-out: Peptide remaining): 0% | Mouse body weight, normalized to the weight at the beginning of the experiment [2, 20]: 90 | Mouse body weight, normalized to the weight at the beginning of the experiment [2, 21]: 90 | Mouse body weight, normalized to the weight at the beginning of the experiment [2, 22]: 100 | Mouse body weight, normalized to the weight at the beginning of the experiment [2, 23]: 90 | Mouse body weight, normalized to the weight at the beginning of the experiment [2, 24]: 95 | Mouse body weight, normalized to the weight at the beginning of the experiment [2, 25]: 100 | Mouse body weight, normalized to the weight at the beginning of the experiment [2, 26]: 90 | Mouse body weight, normalized to the weight at the beginning of the experiment [2, 27]: 95 | Mouse body weight, normalized to the weight at the beginning of the experiment [2, 28]: 105 | Mouse body weight, normalized to the weight at the beginning of the experiment [2, 29]: 85 | Mouse body weight, normalized to the weight at the beginning of the experiment [2, 30]: 95 | Mouse body weight, normalized to the weight at the beginning of the experiment [2, 31]: 100 | Histopathological effect on skin tissue (in words) [3]: Neither TV nor VmCT1 changed the tissue’s morphology | Hemolytic activity (concentration of peptide needed to kill 10% of red blood cells) [4]: 0.2 µmol/L

FLGALWNVAKSVF-NH2 [VmCT1, reference compound]
Peptide remaining [1, 6]: 28.5 | Peptide remaining [1, 7]: 24.4 | Peptide remaining [1, 8]: 26.5 | Peptide remaining [1, 9]: 6.3 | Peptide remaining [1, 10]: 8.5 | Peptide remaining [1, 11]: 7.4 | Peptide remaining [1, 12]: 10.5 | Peptide remaining [1, 13]: 13.9 | Peptide remaining [1, 14]: 11.9 | Peptide remaining [1, 15]: 0.0 | Peptide remaining [1, 16]: 0.0 | Peptide remaining [1, 32]: 0.0 | Peptide remaining [1, 17]: 0.0 | Peptide remaining [1, 18]: 0.0 | Peptide remaining [1, 19]: 0.0 | Mouse body weight, normalized to the weight at the beginning of the experiment [2, 20]: 90 | Mouse body weight, normalized to the weight at the beginning of the experiment [2, 21]: 100 | Mouse body weight, normalized to the weight at the beginning of the experiment [2, 22]: 105 | Mouse body weight, normalized to the weight at the beginning of the experiment [2, 23]: 90 | Mouse body weight, normalized to the weight at the beginning of the experiment [2, 24]: 95 | Mouse body weight, normalized to the weight at the beginning of the experiment [2, 25]: 100 | Mouse body weight, normalized to the weight at the beginning of the experiment [2, 26]: 95 | Mouse body weight, normalized to the weight at the beginning of the experiment [2, 27]: 100 | Mouse body weight, normalized to the weight at the beginning of the experiment [2, 28]: 105 | Mouse body weight, normalized to the weight at the beginning of the experiment [2, 29]: 90 | Mouse body weight, normalized to the weight at the beginning of the experiment [2, 30]: 100 | Mouse body weight, normalized to the weight at the beginning of the experiment [2, 31]: 100 | Histopathological effect on skin tissue (in words) [3]: Neither TV nor VmCT1 changed the tissue’s morphology

SLLSLIRKLIT-NH2 [Decoralin, reference compound]
Peptide remaining [1, 8]: 0.0 | Peptide remaining [1, 11]: 0.0 | Peptide remaining [1, 14]: 0.0 | Peptide remaining [1, 15]: 0.0 | Peptide remaining [1, 16]: 0.0 | Peptide remaining [1, 32]: 0.0 | Peptide remaining [1, 17]: 0.0 | Peptide remaining [1, 18]: 0.0 | Peptide remaining [1, 19]: 0.0 | remaining at 0.5 h ([1]; fetal bovine serum, 25% in water, LC peak area, time 0 = 100, 0.5 h, replicate 1, read-out: Peptide remaining): 71% | remaining at 0.5 h ([1]; fetal bovine serum, 25% in water, LC peak area, time 0 = 100, 0.5 h, replicate 2, read-out: Peptide remaining): 65% | remaining at 1 h ([1]; fetal bovine serum, 25% in water, LC peak area, time 0 = 100, 1 h, replicate 1, read-out: Peptide remaining): 26% | remaining at 1 h ([1]; fetal bovine serum, 25% in water, LC peak area, time 0 = 100, 1 h, replicate 2, read-out: Peptide remaining): 23% | remaining at 2 h ([1]; fetal bovine serum, 25% in water, LC peak area, time 0 = 100, 2 h, replicate 1, read-out: Peptide remaining): 29% | remaining at 2 h ([1]; fetal bovine serum, 25% in water, LC peak area, time 0 = 100, 2 h, replicate 2, read-out: Peptide remaining): 23% | Hemolytic activity (in words) [5]: low hemolytic activity | Hemolytic activity (concentration of peptide needed to kill 10% of red blood cells) [4]: 1.6 µmol/L
